# In publication PMC11500415, “Chemical inhibition of stomatal differentiation by perturbation of the master-regulatory bHLH heterodimer via an ACT-Like domain” (Nature Communications, 2024):
# Where “and” joins values, the source holds several entries; their conditions need not be identical. Identical values can stand only once.
# System: Arabidopsis stomatal development mutants (spch, mute, fama, er, erl1, erl2, hdg2, atml1, scrm, scrm2, scrm-D and suppressors)
# Test: Stomatal development bioassay in mutant seedlings, liquid culture
# Type: in vivo
# Settings: 50 μM; for meristemoids density: single seedlings n=8 (Fig. 3c)
# Protocol: Arabidopsis accession Columbia (Col-0) was used as wild-type. […] Their genotype and transcript reduction were confirmed. The presence of transgenes/mutant alleles were confirmed by genotyping. For liquid culture with Stomidazolone (AYSJ929, compound 3), the analogs (AYSJ1059 (compound 5) and AYSJ1061 (compound 6)), degraded compound lzx103 (compound 4), and SIM3* (compound 7), all compounds were dissolved in dimethyl sulfoxide (DMSO, Molecular biology grade, Fujifilm Wako, Japan 046-21981), Col-0 seeds were sown in 96-well plates (TL5003; True Line) containing 95 μL of 1/2 MS media containing 0.5% sucrose with rotary shaking at 140 rpm under continuous light at 22 °C. Five μL of compounds were dissolved in DMSO at 10 mM and diluted with liquid 1/2 MS media to 1 mM and added on 1-day-old seedlings (final concentration, 50 μM). Seedlings were incubated for 8 days, and at day 9 seedling abaxial cotyledons were observed through confocal microscopy. For liquid culture of scrm-D_S343 and scrm-D_S423, 1/2 MS liquid media without sucrose was used. For the solid culture, 0, 20, 50 or 100 μM Stomidazolone were solidified with low-melting agarose (5805S, PrimeGelTM Agarose LMT 1-20 K, TAKARA Bio). Briefly, 1/2 MS salt, 0.5% sucrose, and 0.8% low melting agarose were mixed in water and autoclaved. After cooling the medium at around 30 °C, Stomidazolone (500x, dissolved in DMSO) was added and poured into 90 mm petri dishes (Asnol Petri Dish JP φ90 x 15 mm, 3-1491-01, AS ONE). Col-0 seeds were sown on Stomidazolone-containing 1/2 MS agarose media and grown under continuous light for 9 days.
# For confocal microscopy, cell peripheries of seedlings were visualized with propidium iodide (Sigma, P4170). Images were acquired using LSM800 or LSM700 (Zeiss) using a 20x lens. The GFP, YFP reporter and PI signals were detected with excitation at 488 nm and an emission filter of 410 to 546 nm, at 488 nm and an emission filter of 410 to 546 nm, and with excitation at 561 nm and 582–617 nm emission range, respectively. Raw data were collected with 1024 × 1024 pixel images. For qualitative image presentation, Adobe Photoshop CC was used to trim and uniformly adjust the contrast/brightness.
# For quantitative analysis of the abaxial leaf epidermis, confocal images were taken on the days after germination as indicated in the Figure legends. Preparation of images was done as described previously[32],[70]. For counting epidermal cell types, stomatal density, stomatal precursor cells (meristemoids), total stomata-lineage cells (stomata and meristemoids) were calculated by counting cell types in an area of 0.4 mm^2 (0.63 mm × 0.63 mm) and plotted as per mm^2. A series of Z-stack confocal images was obtained to obtain images covering the epidermis and capturing GFP/YFP signal from the reporter lines. The area and the number of epidermal cells were quantified by using FIJI-ImageJ. Statistical analyses were performed using R ver. 4.0.2. Sample sizes (n) are indicated and defined in each legend. For the multiple sample comparison, 1-way ANOVA was performed followed by a post hoc Tukey HSD test. For the two-sample comparison, Student’s T-test was performed. Graphs were generated using R ggplot2 package. For all boxplots, each box represents IQR (interquartile range), in which top, middle line, and bottom indicating 75, 50, and 25 percentiles, respectively, and the bar representing maximum to minimal values. Each magenta dot represents jittered individual data point. The datapoints that go beyond the bar are outliers, which are indicated as black dots. If the data point is greater than Q3 + 1.5*IQR (above the third quartile is greater than 1.5 times of the interquartile range) or less than Q1 − 1.5*IQR, that data point is classified as outlier. The color of Boxplot graph was based on ColorBrewer.org. The value of n, the number of each experiment or samples, the means of error bars, and how statistical significance was defined are indicated in a relevant figure legend. […]
# [1] = er erl1, single seedlings n=8 (Fig. 4f)
# [2] = scrm-D_S343, single seedlings n=8 (Fig. 5n)
compound,measurement,setting,value
O=C1C(c2ccccc2)=NC(NS(=O)(=O)c2ccccc2)(c2ccccc2)N1S(=O)(=O)c1ccccc1 (stereo not shown) [Stomidazolone],effect on epidermal phenotype (in words),er (er-105),the number of stomata drastically decreased and the meristemoids vastly increased
same,effect on epidermal phenotype (in words),er erl1,"did not reduce the number of stomata, although it increased the number of meristemoids"
same,Stomata density,[1],204 per mm2 and 275 per mm2 and 292 per mm2
same,Total (stomata+meristemoid) density,[1],382 per mm2 and 272 per mm2 and 360 per mm2 and 323 per mm2 and 292 per mm2 and 347 per mm2 and 369 per mm2
same,effect on epidermal phenotype (in words),er erl1 erl2,insensitive
same,Meristemoid density,"er erl1 erl2, single seedlings n=8 (Fig. 4j, replotted 4k)",0 per mm2
same,effect on epidermal phenotype (in words),er erl2,The number of arrested meristemoids is even more increased
same,effect on epidermal phenotype (in words),fama,significantly reduced the number of fama tumors whereas increasing the number of arrested meristemoids
same,effect on epidermal phenotype (in words),hdg2,increased the meristemoid numbers of hdg2 epidermis while the total numbers of stomata and meristemoids were unaffected
same,Total (stomata+meristemoid) density,"hdg2 (hdg2-2), single seedlings n=8 (Fig. 4m)",149 per mm2 and 112 per mm2 and 171 per mm2 and 93 per mm2 and 137 per mm2 and 107 per mm2 and 141 per mm2
same,effect on epidermal phenotype (in words),hdg2 atml1,hypersensitivity
same,Total (stomata+meristemoid) density,"hdg2 atml1 (hdg2-2 atml1-3), single seedlings n=8 (Fig. 4o)",92 per mm2 and 141 per mm2 and 156 per mm2 and 153 per mm2 and 112 per mm2 and 109 per mm2
same,effect on epidermal phenotype (in words),mute,not enhanced
same,meristemoids density,mute (mute-1),296 per 1 mm2 and 243 per 1 mm2 and 204 per 1 mm2 and 289 per 1 mm2 and 350 per 1 mm2 and 267 per 1 mm2 and 187 per 1 mm2
same,effect on epidermal phenotype (in words),scrm2-1,reduction of the number of stomata with meristemoid arrests
same,Stomatal index SI (%),"scrm2-1, single seedlings n=8 (Fig. 5f)",25.2% and 23.5% and 22.4% and 18.0% and 27.0% and 24.1% and 26.7% and 15.5%
same,effect on epidermal phenotype (in words),scrm (ice1-2),severely reduced stomatal lineage initiation
same,effect on epidermal phenotype (in words),scrm scrm2-1,no effects
same,Stomatal index SI (%),"scrm scrm2-1, single seedlings n=7 (Fig. 5h)",0%
same,effect on epidermal phenotype (in words),scrm-D,not affected
same,Stomatal index SI (%),"scrm-D, single seedlings n=8 (Fig. 5j)",100.0% and 99.0% and 98.0%
same,SI (%),[2],10.3% and 14.9% and 8.1% and 11.9% and 12.8% and 12.5% and 9.6% and 12.1%
same,small cells index (%),[2],31.8% and 53.1% and 60.4% and 54.1% and 50.8% and 47.7% and 36.1%
same,effect on epidermal phenotype (in words),scrm-D_S343 and scrm-D_S423,triggered excessive formation of arrested meristemoids
same,effect on epidermal phenotype (in words),scrm-D_S343 scrm2-1 and scrm-D_S423 scrm2-1,insensitivity
same,SI (%),"scrm-D_S423, single seedlings n=8 (Fig. 5p)",0.7% and 1.2% and 0.0% and 1.4% and 3.0%
same,effect on epidermal phenotype (in words),spch,no effects
same,meristemoids density,spch (spch-3),0 per 1 mm2
